# Source: US9884842B2, “Combretastatin analogs” (The Board of Trustees of the University of Arkansas, priority 2013, dated 2018)
# Experiments:
# MOLT-4 = test: NCI growth inhibition and cytotoxicity screen, Leukemia panel; details: Homo sapiens
# NCI-H23 = test: NCI growth inhibition and cytotoxicity screen, Lung Cancer panel; details: Homo sapiens
# CCRF-CEM = test: NCI growth inhibition and cytotoxicity screen, Leukemia panel; details: Homo sapiens
# MCF7 = test: NCI growth inhibition and cytotoxicity screen, Breast Cancer panel; details: Homo sapiens
# HCT-15 = test: NCI growth inhibition and cytotoxicity screen, Colon Cancer panel; details: Homo sapiens
# ACHN = test: NCI growth inhibition and cytotoxicity screen, Renal Cancer panel; details: Homo sapiens
# SK-MEL-2 = test: NCI growth inhibition and cytotoxicity screen, Melanoma panel; details: Homo sapiens
# MALME-3M = test: as above; details: Homo sapiens
# SNB-75 = test: NCI growth inhibition and cytotoxicity screen, CNS Cancer panel; details: Homo sapiens
# SF-539 = test: as above; details: Homo sapiens
# K-562 = test: NCI growth inhibition and cytotoxicity screen, Leukemia panel; details: Homo sapiens
# PC-3 = test: NCI growth inhibition and cytotoxicity screen, Prostate Cancer panel; details: Homo sapiens
# OVCAR-5 = test: NCI growth inhibition and cytotoxicity screen, Ovarian Cancer panel; details: Homo sapiens
# SNB-19 = test: NCI growth inhibition and cytotoxicity screen, CNS Cancer panel; details: Homo sapiens
# NCI-H226 = test: NCI growth inhibition and cytotoxicity screen, Lung Cancer panel; details: Homo sapiens
# SN12C = test: NCI growth inhibition and cytotoxicity screen, Renal Cancer panel; details: Homo sapiens
# HCC-2998 = test: NCI growth inhibition and cytotoxicity screen, Colon Cancer panel; details: Homo sapiens
# MDA-MB-468 = test: cells; details: Homo sapiens
# SK-MEL-5 = test: NCI growth inhibition and cytotoxicity screen, Melanoma panel; details: Homo sapiens
# NCI-H322M = test: NCI growth inhibition and cytotoxicity screen, Lung Cancer panel; details: Homo sapiens
# SW-620 = test: NCI growth inhibition and cytotoxicity screen, Colon Cancer panel; details: Homo sapiens
# MDA-MB-231/ATCC = test: NCI growth inhibition and cytotoxicity screen, Breast Cancer panel; details: Homo sapiens
# HS 578T = test: as above; details: Homo sapiens
# SF-295 = test: NCI growth inhibition and cytotoxicity screen, CNS Cancer panel; type: cell-based; details: Homo sapiens, Table 2, cell line SF-295 (CNS Cancer)
# CAKI-1 = test: NCI growth inhibition and cytotoxicity screen, Renal Cancer panel; details: Homo sapiens
# KM12 = test: NCI growth inhibition and cytotoxicity screen, Colon Cancer panel; details: Homo sapiens
# UACC-257 = test: NCI growth inhibition and cytotoxicity screen, Melanoma panel; details: Homo sapiens, UACC-257, read-out: LC50
# U251 = test: NCI growth inhibition and cytotoxicity screen, CNS Cancer panel; details: Homo sapiens
# OVCAR-4 = test: NCI growth inhibition and cytotoxicity screen, Ovarian Cancer panel; details: Homo sapiens
# SK-OV-3 = test: as above; details: Homo sapiens
# LOX-IMVI = test: NCI growth inhibition and cytotoxicity screen, Melanoma panel; details: Homo sapiens
# NCI-H522 = test: NCI growth inhibition and cytotoxicity screen, Lung Cancer panel; type: cell-based; details: Homo sapiens, Table 2, cell line NCI-H522 (Lung Cancer)
# [1] = read-out: LC50 (the source's name)
structure (smiles),measurement,setting,value
"COc1cc(OC)cc(/C(C#N)=C/c2ccc3ccccc3n2)c1 [PNR-4-84, (Z)-2-(3,5-dimethoxyphenyl)-3-(quinolin-2-yl)acrylonitrile]",GI50,MOLT-4; MOLT-4,0.419 µM
same,CC50,"MOLT-4; MOLT-4, read-out: LC50",> 100 µM
same,GI50,NCI-H23; NCI-H23,0.983 µM
same,CC50,"NCI-H23; NCI-H23, read-out: LC50",> 100 µM
same,GI50,CCRF-CEM,0.332 µM
same,CC50,CCRF-CEM; read-out: LC50,> 100 µM
same,GI50,MCF7; MCF7,0.537 µM
same,CC50,"MCF7; MCF7, read-out: LC50",> 100 µM
same,GI50,HCT-15; HCT-15,0.409 µM
same,CC50,"HCT-15; HCT-15, read-out: LC50",> 100 µM
same,GI50,ACHN,0.773 µM
same,CC50,ACHN; read-out: LC50,> 100 µM
same,GI50,SK-MEL-2; SK-MEL-2,0.522 µM
same,CC50,"SK-MEL-2; SK-MEL-2, read-out: LC50",> 100 µM
same,GI50,MALME-3M,0.348 µM
same,CC50,MALME-3M; read-out: LC50,> 100 µM
same,GI50,SNB-75; SNB-75,0.311 µM
same,CC50,"SNB-75; SNB-75, read-out: LC50",> 100 µM
same,GI50,SF-539; SF-539,0.286 µM
same,CC50,"SF-539; SF-539, read-out: LC50",8.03 µM
same,GI50,K-562; K562,0.353 µM
same,CC50,"K-562; K562, read-out: LC50",> 100 µM
same,GI50,PC-3; PC-3,0.584 µM
same,CC50,"PC-3; PC-3, read-out: LC50",> 100 µM
same,GI50,OVCAR-5; OVCAR-5,0.716 µM
same,CC50,"OVCAR-5; OVCAR-5, read-out: LC50",42.8 µM
same,GI50,SNB-19; SNB-19,0.728 µM
same,CC50,"SNB-19; SNB-19, read-out: LC50",> 100 µM
same,GI50,NCI-H226; NCI-H226,10.8 µM
same,CC50,"NCI-H226; NCI-H226, read-out: LC50",> 100 µM
same,GI50,SN12C,0.661 µM
same,CC50,SN12C; read-out: LC50,> 100 µM
same,GI50,HCC-2998; HCC 2998,1.42 µM
same,CC50,"HCC-2998; HCC 2998, read-out: LC50",> 100 µM
same,GI50,MDA-MB-468; MDA-MB-468,1.5 µM
same,CC50,"MDA-MB-468; MDA-MB-468, read-out: LC50",> 100 µM
same,GI50,SK-MEL-5; SK-MEL-5,0.406 µM
same,CC50,"SK-MEL-5; SK-MEL-5, read-out: LC50",> 100 µM
same,GI50,NCI-H322M,3.02 µM
same,CC50,NCI-H322M; read-out: LC50,> 100 µM
same,GI50,SW-620; SW-620,0.357 µM
same,CC50,"SW-620; SW-620, read-out: LC50",> 100 µM
same,GI50,MDA-MB-231/ATCC; MDA-MB-231,1.02 µM
same,CC50,"MDA-MB-231/ATCC; MDA-MB-231, read-out: LC50",> 100 µM
same,GI50,HS 578T,0.7 µM
same,CC50,HS 578T; read-out: LC50,> 100 µM
same,GI50,SF-295,0.341 µM
same,CC50,SF-295; [1],> 100 µM
same,GI50,CAKI-1; CAKI-1,0.318 µM
same,CC50,"CAKI-1; CAKI-1, read-out: LC50",> 100 µM
same,GI50,KM12; KM12,0.425 µM
same,CC50,"KM12; KM12, read-out: LC50",> 100 µM
same,CC50,UACC-257,> 100 µM
same,GI50,U251; U-251,0.425 µM
same,CC50,"U251; U-251, read-out: LC50",> 100 µM
same,GI50,OVCAR-4; OVCAR-4,0.788 µM
same,CC50,"OVCAR-4; OVCAR-4, read-out: LC50",> 100 µM
same,GI50,SK-OV-3; SK-OV-3,0.804 µM
same,CC50,"SK-OV-3; SK-OV-3, read-out: LC50",> 100 µM
same,GI50,LOX-IMVI,0.61 µM
same,CC50,LOX-IMVI; read-out: LC50,> 100 µM
same,GI50,NCI-H522,0.094 µM
same,CC50,NCI-H522; [1],> 100 µM
